Test system: spores of Bacillus subtilis
Assay: Sterilization effect on Bacillus subtilis spores by total viable cell count
Settings: direct mechanism (surfactant ingredients) or indirect mechanism (germination inducers), ingredients acting jointly within the extract
Procedure: Bacillus subtilis spores were selected for use in an antimicrobial test against a spore-forming microorganism.
Vegetative cells of Bacillus subtilis ATCC 6633 were sub-cultured, streaked onto tryptic soy agar (TSA) plates, and incubated at 30° C. for 48 hrs. The plates were then stored at a low temperature of 5° C. and used as a seed culture. After the seed culture was identified to have no morphological abnormality by microscopic observation, it was spread onto a nutrient agar plate containing magnesium sulfate (NAMS), and incubated at 30° C. for 48 hrs. After 10^10-10^12 spores had emerged, the plate was washed with physiological saline, and the spores were scratched with a platinum loop and transferred into a sterile tube. The spores were then centrifuged at 4° C. at 12,000 rpm for 2 min, and this centrifugation was carried out once more. After being microscopically observed to ensure the state of the spores, the pellet was subjected to on-off ultrasonication for 5 min to destroy only the vegetative cells, and was then centrifuged again. Spore formation was further confirmed by a Dorner method, and the spores were stored at −20° C. until use for an antimicrobial test.
The antimicrobial plant materials were extracted with 75% ethanol, concentrated in a vacuum, and freeze-dried to provide aqueous or powdered antimicrobial materials. […] An antimicrobial test against spores of Bacillus subtilis, the representative spore-forming microorganism, was performed by optical density analysis at 600 nm and by counting of the total number of viable cells grown on a nutrient agar plate.
Optical density analysis is a method of indirectly analyzing the degree of growth of vegetative cells and spores by measuring OD values at 600 nm for vegetative cells and spores cultured in tryptic soy broth (TSB) at 37° C. for 18 hrs. The plant materials were primarily screened for candidates considered effective in sterilization by optical density analysis. Then, the candidates were further assessed for their antimicrobial effects by viable cell count. In detail, a spore suspension was mixed with physiological saline and a natural antimicrobial material (1% final concentration). The mixture was agitated at 30° C. for 3 hrs, and was then centrifuged at 12,000 rpm. After the supernatant, considered to contain the added antimicrobial material, was discarded, the pellet remaining in an Ependorf tube was covered with distilled water and centrifuged again to eliminate residual antimicrobial material. This washing step was repeated three times to obtain only spores treated with a natural antimicrobial material. This was done to evaluate the sterilization effects of the natural antimicrobial materials on pure spore samples.

| SMILES | sterilization effect attributed to ingredients of the extract |
| --- | --- |
| C[C@H](N)C(=O)O [alanine] | about 10^2 |
| CC(=O)OC1CC2CCC1(C)C2(C)C (centres unmarked) [bornyl acetate] | about 10^1 |
| CC(=O)OC/C=C(\C)CCC=C(C)C [geranyl acetate] | about 10^1 |
| OC[C@@H](O)[C@@H](O)[C@H](O)[C@H](O)CO [mannitol] | about 10^2 |
| OC[C@@H](O)[C@H](O)[C@@H](O)CO [xylitol] | about 10^2 |

Reference: US7927632B2, “Compositions for sterilizing spores of spore-forming microorganisms comprising the extracts of torilidis fructus” (CJ Cheiljedang Corporation, priority 2005, dated 2011)
